For 65 compounds, melting point results are on record in a melting point compilation (Tetko et al.; mined from patent text by program, amines drawn as free bases though some values may be those of a salt).

Compound `CC1(C)NC(=O)N(c2ccc(F)cc2)C1=O` showed a melting point of 166 to 167 °C.

`CCCCCCC#Cc1ccc(C=C(C(=O)O)C(=O)O)s1` displayed a melting point of 106 °C.

With `Cc1ccc2c(c1)c(-c1ccc(F)cc1)cn2N`, the melting point was in the range of 116 to 120 °C.

`CC(C)c1cc(CCC(=O)O)n(Cc2ccc(C(F)(F)F)cc2Cl)n1`: the melting point fell in the range of 117 to 119 °C.

`Cc1cc(C)c(Oc2cc(Nc3ccc(C#N)cc3)c([N+](=O)[O-])cc2[N+](=O)[O-])c(C)c1` displayed a melting point of 132 °C.

Turning to `CC(=O)Nc1nc(N(C(C)=O)C(C)=O)c(CC=O)c(=O)[nH]1`, the melting point lay in the range of 169 to 170 °C.

Regarding `CCCCCCN(C[C@@H]1CCCC[C@H]1CN(CCCCCC)C(=O)Nc1ccc(N(C)C)cc1)C(=O)Nc1ccc(N(C)C)cc1` (relative stereo), the melting point is 112 to 117 °C.

`c1ccc(CCN2CCN(Cc3nc4ccccc4[nH]3)CC2)cc1` gave a melting point of 150 to 152 °C.

`CCN1CCCC1=NC(=O)Nc1c(C)cccc1C` gave a melting point of 120 to 122 °C.

As to `O=C1Nc2cc(Cl)ccc2Nc2cscc21`, the melting point lay within 212 to 213 °C.

In turn, `N#Cc1cnn(-c2c(Cl)cc(Cl)cc2Cl)c1Cl` yielded a melting point of 78 to 79 °C.

On to `COc1ncccc1-c1ccc(OC2SCC(O)C(O)C2O)cn1` (stereo not given), for which the melting point is 127 °C.

With `Cc1nc[nH]c1CSCCNC(=N)NS(N)(=O)=O`, the melting point was 130 to 133 °C.

With `COC(=O)c1cnn2c(C(F)(F)F)cc(O)nc12`, the melting point was in the range of 149 to 150 °C.

For `CCNC(=O)N1CCC(c2[nH]nc3c2C(=O)c2c(NC(=O)NN4CCOCC4)cccc2-3)CC1`, the melting point was 215 to 216 °C.

With `Cc1cccc(SCCC(=O)O)c1`, the melting point is 73 to 75.5 °C.

Regarding `CCCCc1oc2ccccc2c1C(=O)NCc1ccc(-c2ccc(OCC(=O)O)c(Br)c2)cc1`, the melting point was 175 to 190 °C.

`COC(=O)c1cc(C(=O)OC)n(-c2ccc([N+](=O)[O-])cc2C(=O)c2ccccc2)n1`: the melting point lay in the range of 150 to 152 °C.

`COC(=O)CC(=O)c1cc2cc(OC)c(OC)cc2s1` came in with a melting point of 129 to 130 °C.

For the compound `CCN(CC)C(=O)c1ccc(I)cc1`, the melting point was 68 to 70 °C.

As for `O=C1C(=O)c2ccccc2C2=C1SCC1(CCN(C(=O)c3ccc(Cl)c(Cl)c3)CC1)O2`, the melting point was 221 °C.

Turning to `O=C1C[C@H]2CCN(Cc3ccccc3)C[C@H]2c2ccc(F)cc21` (relative stereo), the melting point was more than 220 °C.

`CCOCc1nc2c(N)nc3cc(-n4cccn4)ccc3c2n1CCCOC` displayed a melting point of 159 to 160 °C.

In turn, `c1ccc(CNc2nc(-n3cncn3)nc3ccccc23)cc1` yielded a melting point of 193 to 195 °C.

`COc1c(CC#N)c2c(c3c1OC(C)(C)C3)C(c1cccc(C(=O)NC3CCCCNC3=O)c1)=NC(C)(C)C2` (stereo not given) came in with a melting point of 130 to 132 °C.

As for `Cc1cccc2c(=O)n3c(nc12)C(=O)c1ccccc1-3`, the melting point lay within 247 to 248 °C.

For the compound `Cc1c(C)n(CC2CC2)c2c(OCc3ccccc3)nncc12`, the melting point was in the range of 123 to 124 °C.

`C#Cc1ccc(OC2CCCCO2)cc1` (stereo not given) showed a melting point of 65 °C.

`Cc1ccc(Sc2nc(-c3ccccc3)cnc2N)cc1` had a melting point of 120 to 122 °C.

Consider `COC(=O)c1ccccc1Oc1ccc(C)cc1`, for which the melting point was in the range of 31 to 34 °C.

Turning to `CC(=O)c1ccc(NS(C)(=O)=O)c(Br)c1`, the melting point is 124 to 126 °C.

Compound `O=C1CCc2cc(C(=O)[C@H]3CC[C@H]3C(=O)O)ccc2N1` (relative stereo) gave a melting point of 155 to 158 °C.

`COc1ccc(C(=O)O)c(C(=O)O)c1` registered a melting point of 168 to 174 °C.

Take `CC(C)c1ccc(-c2c(Cl)ncnc2Cl)cc1`: the melting point was 69 to 70 °C.

In the case of `CC1CCC(NS(N)(=O)=O)CC1` (stereo not given), the melting point lay in the range of 109 to 110 °C.

Turning to `CCCCCc1ccc(CC(=O)c2ccc(OC)cc2)cc1`, the melting point was 62 °C.

In turn, `O=C(O)c1cccc2nnsc12` had a melting point of 239 to 240 °C.

In the case of `COc1cc(NC(=N)Nc2ccc3c4c(cccc24)CC3)cc2ccccc12`, the melting point lay in the range of 191 to 192 °C.

`CCc1ccc2c(c1)C=Cc1cc(O)ccc1C2c1cn(-c2ccnc(NCC(=O)Nc3nc(CC(=O)O)cs3)n2)c(=O)[nH]c1=O` (stereo not given): the melting point is 225 °C.

`COC(=O)N1CCC(=O)C(C2(NO)OCCO2)C1` (stereo not given) had a melting point of 162 to 165 °C.

In turn, `COc1ccccc1NCN1C(=O)CSC1=O` came in with a melting point of 88.5 to 91 °C.

`CCCN1C(=O)c2ccccc2Sc2ccccc21` had a melting point of 103 to 104 °C.

For the compound `C=C1N(C)C(=O)OC12CCN(C(=O)NCCCC)CC2`, the melting point was 129 to 130 °C.

On to `O=C(Nc1cccc2c1C(=O)c1c-2n[nH]c1C1CCN(C(=O)N2C[C@@H]3C[C@H]2CN3)CC1)NN1CCOCC1`, for which the melting point is 196 to 198 °C.

For the compound `Cc1c(C=CCN2CC=C(c3ccccc3)CC2)cnn1-c1ncccn1`, the melting point lay within 112 to 114 °C.

`O=c1[nH]c2ncc(-c3ccc(-c4n[nH]c(CO)n4)cc3)nc2n1CC1CCOCC1` showed a melting point of 258 to 260 °C.

With `COc1c(-c2cc3c(s2)CCC/C3=N\OCc2ccccn2)ccc2c(=O)c(C(=O)O)cn(C3CC3)c12`, the melting point lay in the range of 178 to 179 °C.

For the compound `O=C(Nc1cccc(OC(F)(F)F)c1)NC1N=C(c2ccccc2F)c2ccccc2N(CC(=O)N2CC3CCC(CC3)C2)C1=O` (racemic), the melting point fell in the range of 156 to 164 °C.

As for `Cc1c(-c2ccccc2)n(Cc2ccccc2)c2ccc(-c3ccc(OCC#N)cc3)cc12`, the melting point stood at 140 °C.

Turning to `CCOC(=O)Oc1cc2occ(C=O)c(=O)c2cc1OC(=O)OCC`, the melting point fell in the range of 101 to 102 °C.

The compound `CNCc1ccc2c(Br)c(OC)ccc2c1` gave a melting point of 41 to 45 °C.

`COC(=S)c1ccncc1Cc1ccccc1` yielded a melting point of 79 to 80 °C.

For `COc1ccccc1N1CCN(CCCCOc2ccc(-c3cn4ccsc4n3)cc2)CC1`, the melting point fell in the range of 128 to 130 °C.

Compound `CCOCC1COc2cc3c(Cl)c(C(=O)OCC)cnc3cc2O1` (stereo not given) came in with a melting point of 106 to 108 °C.

As for `COC(=O)CCCOc1ccc2ccc(O)cc2c1`, the melting point was in the range of 122 to 125 °C.

Compound `Nc1ccc2c(c1)C(c1ccccc1Cl)=CCC(=O)N2` showed a melting point of 192 °C.

Compound `O=C(CCCCCCOc1ccc2c(c1)[nH]c1ccccc12)NO` registered a melting point of 198 °C.

Compound `CCOC(=O)C(CC(F)(F)CC(C)C1CCC2C3CC=C4CC(OC5CCCCO5)CCC4(C)C3CCC12C)C(=O)OCC` (stereo not given) showed a melting point of 79 to 80 °C.

For `CCN(CC)C(=O)COC(=O)/C=C/C(=O)OC`, the melting point fell in the range of 53 to 56 °C.

For `COC(=O)CCc1oc(-c2ccc3c(c2)OCO3)nc1-c1ccc(Cl)cc1`, the melting point lay in the range of 123 to 124 °C.

The compound `Cc1ccc(C(=O)C2Cc3ccccc3C2=O)cc1` (stereo not given) came in with a melting point of 103 to 105 °C.

`CCOC(=O)C1COc2c(OC)ccc([N+](=O)[O-])c2C1` (stereo not given) had a melting point of 66 to 68 °C.

With `CC(=O)Nc1nc2ncn(C)c(=S)n2n1`, the melting point was more than 300 °C.

For `C[C@]1(COc2ccc(N3CCC(COc4ccc(CCl)cc4)CC3)cc2)Cn2cc([N+](=O)[O-])nc2O1`, the melting point fell in the range of 140 to 142 °C.

`O=C(O)c1csc2c(=O)cc(-c3ccccc3)oc12` yielded a melting point of 282 to 283 °C.

As a reminder, the melting point is the temperature, or range, at which the solid turns liquid.
